Patent US20090156609A1, “TREATMENT OF POST-TRAUMATIC STRESS DISORDER WITH TETRAHYDROINDOLONE ARYLPIPERZAINE COMPOUNDS” (priority 2007, published 2009)
Where two headings read alike, the source gives them in different places.

How the values were obtained:
[1] = Neuromuscular coordination (rotarod); design: species or system mice; conditions: male, Swiss Webster (CFW), mouse, in vivo, sc; subcutaneous administration, tested 30 minutes after dosing; read-out: ED50 (ability to remain on the rotarod)
Description: This model can be used to determine the dose of a compound or composition at which unwanted side effects (muscle tone/motor coordination deficits) occur. Animals (C57 Mice) are placed on a rotarod treadmill (model V EE/85, Columbus Instruments, Columbus, Ohio) accelerating from 1 to 80 revolutions/4 minutes. All mice are given two control trials at least 12 hours before oral administration evaluation of compounds. Mice are tested on the rotarod 30 minutes after administration of compounds. The number of seconds each mouse remained on the rotarod is recorded.
Doses at which the coordination of an animal is decreased or at which its motor function is altered, such that the ability of the animal to remain on the rotarod is reduced, are determined. Doses below this are selected for further evaluation.
Male Swiss Webster (CFW) mice were placed on a rotarod (model V EE/85, Columbus Instruments, Columbus, Ohio) accelerating from 1 to 80 revolutions/4 minutes. All mice were given two control trials at least 12 hours before administration of the present compounds for evaluation. Mice were tested on the rotarod 30 minutes after subcutaneous administration of compounds. The number of seconds each mouse remained on the rotarod was recorded. Compounds that decreased coordination or altered motor function reduced the ability of the animal to remain on the rotarod.

[2] = system: Male C57 mice; experiment: PCP-induced disruption of prepulse inhibition (PPI) of the startle response; format: in vivo; conditions: for minimal effective dose: Mus musculus, 20 minutes prior to PCP 5 mg/kg IP, read-out: Effective Dose, Prepulse Inhibition Testing
Description: The phencyclidine (PCP)-induced disruption of pre-pulse inhibition (PPI) has been used to predict efficacy in cognitive impairment and other disorders. In this test, a weaker auditory prestimulus (prepulse) inhibits the reaction of an test organism to a subsequent strong startle stimulus (pulse). Normal PPI functioning in mammals is critical in filtering out irrelevant sensory information, an inhibitory process that is affected in patients with PTSD. A reduction of the cognitive/attention impairment produced in the PPI model can be used as an efficacy measure for compound candidate selection.
For testing of PPI, male C57 mice can be assigned to five dose groups of eight animals per group, and vehicle or test compound can then be administered orally (PO) or subcutaneously (SC) 20 minutes prior to intraperitoneal (IP) administration of vehicle or PCP (5 mg/kg). Ten minutes following PCP administration, the mice are placed into Hamilton-Kinder startle chambers and evaluation of pre-pulse inhibition procedure is performed. Following a five-minute acclimatization period with background white noise (65 decibels), mice were exposed to five different trial types. Trials were presented […] in a quasi-random order, with randomized 5 to 25 second inter-trial intervals. Trials were: stimulus only trial (120 decibel white noise, 50 ms stimulus); two different prepulse+pulse trials in which a 20 ms 5 decibel, or 10 decibel stimuli above a 65 decibel background preceded the 120 decibel pulse by 120 ms; a 10 decibel prepulse without a 120 decibel pulse; and a no stimulus trial, in which only the background noise was presented.
Compounds which are observed to reduce and/or reverse PCP-induced impairment can be selected as candidates for further evaluation. Such reduction is also indicative of memory enhancement, which is also a positive indicator for further development.
Male C57 mice were assigned to five dose groups of eight animals per group, and vehicle or a test compound was administered orally or subcutaneously 20 minutes prior to intraperitoneal administration of vehicle or PCP (5 mg/kg). Ten minutes following PCP administration, the mice were placed into Kinder Scientific startle chambers (Kinder Scientific, Poway, Calif.) and pre-pulse inhibition was evaluated. Following a five-minute acclimatization period with background white noise (65 dB), mice were exposed to five different trial types. Trials were presented in a quasi-random order, with randomized 5 to 25 second inter-trial intervals. The five different trials (presented 10 times each were): stimulus only trial (120 dB white noise, 50 ms stimulus); two different prepulse+pulse trials in which a 20 ms 5 dB or 10 dB stimulus above a 65 dB background preceded the 120 dB pulse by 120 ms; a 10 dB prepulse without a 120 dB pulse; and a no stimulus trial, in which only the background noise was presented.

## O=C1CCCc2c1ccn2CCN1CCN(c2cccc(Cl)c2)CC1 [Compound A, 1-{2-[4-(3-Chlorophenyl)piperazin-1-yl]ethyl}-1,5,6,7-tetrahydroindol-4-one]
[1]
  ED50 at 30 min: 23 mg/kg
[2]; sc, subcutaneous
  minimal effective dose: 3 mg/kg
[2]; oral
  minimal effective dose: 1 mg/kg
[2]; doses of 10 mg/kg, PCP-induced disruption
  prepulse inhibition versus control levels (FIG. 1): inhibition was returned to control levels
[2]; reversal of PCP-induced disruption, route not given
  minimum effective dose, Prepulse Inhibition (PPI): 3 mg/kg
